In general, EC50 refers to the concentration that produces a half-maximal response.

The structures appear in SMILES notation. Calls of active or inactive are those of the source. The rule behind the calls is not given here. Some results are limits rather than exact numbers.

Sphingosine 1-phosphate receptor 2 (Homo sapiens), sequence (O95136 whole entry, looked up): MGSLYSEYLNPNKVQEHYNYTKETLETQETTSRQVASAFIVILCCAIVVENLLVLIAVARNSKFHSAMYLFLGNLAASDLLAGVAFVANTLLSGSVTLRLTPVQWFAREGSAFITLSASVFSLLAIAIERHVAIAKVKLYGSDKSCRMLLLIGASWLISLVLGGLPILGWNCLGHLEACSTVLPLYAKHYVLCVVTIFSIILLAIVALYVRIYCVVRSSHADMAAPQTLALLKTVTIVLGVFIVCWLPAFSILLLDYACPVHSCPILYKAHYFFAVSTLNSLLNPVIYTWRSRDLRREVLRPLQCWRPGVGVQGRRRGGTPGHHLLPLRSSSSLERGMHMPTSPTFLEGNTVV

This test concerns the target Sphingosine 1-phosphate receptor 2 (Homo sapiens) (UniProt O95136). Briefly: agonism at human S1PR2 – cell-based, fluorescence, dose response, counter-screen for S1PR3 antagonist project, late-stage follow-up (AID 743418). The conditions noted are these: S1P2-expressing cells, agonist-mode fluorescence read-out. (The purpose of a counterscreen is to sort out artefacts and off-target activity.)
For the compound `O=C(NC(c1cccc(Cl)c1)c1nc(-c2ccccc2)no1)c1cc(Cl)cc(Cl)c1` (configuration not stated), the EC50 was > 50 µM (inactive).

Turning to `O=C(NC(c1ccccc1)c1nc(-c2ccccc2)no1)c1cccc(Cl)n1` (configuration not stated), the EC50 is > 50 µM (inactive).

Regarding `O=C(NC(Cc1ccccc1)c1nc(-c2ccccc2)no1)c1cccc(Cl)c1` (configuration not stated), the EC50 was > 50 µM (inactive).

Consider `O=C(NC(c1ccc(Br)cc1)c1nc(-c2ccccc2)no1)c1ccc(Cl)c(Cl)c1` (configuration not stated), for which the EC50 was > 50 µM (inactive).

On to `O=C(NC(c1ccc(Cl)cc1)c1nc(-c2ccccc2)no1)c1ccc(Cl)c(Cl)c1` (configuration not stated), for which the EC50 was > 50 µM (inactive).

With `O=C(NC(c1cccc(Cl)c1)c1nc(-c2ccccc2)no1)c1ccc(Cl)c(Cl)c1` (configuration not stated), the EC50 was > 50 µM (inactive).

As to `O=C(NC(c1nc(-c2ccccc2)no1)C1CCCCC1)c1ccc(Cl)c(Cl)c1` (configuration not stated), the EC50 is > 50 µM (inactive).

Turning to `O=C(NC(c1ccc(Cl)cc1)c1nc(-c2ccccc2)no1)c1cccc(Br)c1` (configuration not stated), the EC50 is > 50 µM (inactive).

As to `O=C(NC(c1ccccc1)c1nc(-c2ccccc2)no1)c1cccc(Br)c1` (configuration not stated), the EC50 was > 50 µM (inactive).

For the compound `O=C(NC(c1ccccc1)c1nc(-c2ccccc2)no1)c1cccc(Cl)c1` (configuration not stated), the EC50 is > 50 µM (inactive).

`O=C(NC(c1ccc(Cl)c(Cl)c1)c1nc(-c2ccccc2)no1)c1cccc(Cl)c1` (configuration not stated): the EC50 was > 50 µM (inactive).

As for `O=C(NC(c1ccc(Cl)cc1)c1nc(-c2ccccc2)no1)c1ccc(Cl)c(Br)c1` (configuration not stated), the EC50 was > 50 µM (inactive).

Turning to `O=C(NC(c1ccc(Cl)c(Cl)c1)c1nc(-c2ccccc2)no1)c1ccc(Cl)c(Cl)c1` (configuration not stated), the EC50 is > 50 µM (inactive).

On to `N#Cc1ccc(C(=O)NC(c2ccc(Cl)c(Cl)c2)c2nc(-c3ccccc3)no2)cc1` (configuration not stated), for which the EC50 was > 50 µM (inactive).

Take `COc1ccc(C(=O)NC(c2ccccc2)c2nc(-c3ccccc3)no2)cc1` (configuration not stated): the EC50 was > 50 µM (inactive).

Consider `O=C(NC(c1ccc(Cl)cc1)c1nc(-c2ccccc2)no1)c1cccc(Cl)c1` (configuration not stated), for which the EC50 was > 50 µM (inactive).

Turning to `Cc1ccc(C(=O)NC(c2ccccc2)c2nc(-c3ccccc3)no2)cc1` (configuration not stated), the EC50 is > 50 µM (inactive).

Take `O=C(NC(c1nc(-c2ccccc2)no1)C1CCOCC1)c1ccc(Cl)c(Cl)c1` (configuration not stated): the EC50 is > 50 µM (inactive).

For `CCc1ccc(C(NC(=O)c2cccc(Cl)c2)c2nc(-c3ccccc3)no2)cc1` (configuration not stated), the EC50 is > 50 µM (inactive).

Turning to `O=C(NC(c1ccc(Cl)c(Cl)c1)c1nc(-c2ccccc2)no1)c1ccccc1` (configuration not stated), the EC50 is > 50 µM (inactive).

Consider `O=C(c1cccc(Cl)c1)N(CCO)C(c1ccc(Cl)c(Cl)c1)c1nc(-c2ccccc2)no1` (configuration not stated), for which the EC50 is > 50 µM (inactive).

For `O=C(NC(c1cccc(Cl)c1)c1nc(-c2ccccc2)no1)c1cccc(Cl)c1` (configuration not stated), the EC50 was > 50 µM (inactive).

As for `O=C(NC(c1ccc(Cl)cc1)c1nc(-c2cccc(Cl)c2)no1)c1cccc(Cl)c1` (configuration not stated), the EC50 was > 50 µM (inactive).

`O=C(NC(c1ccc(Cl)cc1)c1nc(-c2ccccn2)no1)c1cccc(Cl)c1` (configuration not stated): the EC50 is > 50 µM (inactive).

With `O=C(NC(c1ccc(Cl)c(Cl)c1)c1nc(-c2ccccc2)no1)c1ccc(Cl)cc1` (configuration not stated), the EC50 was > 50 µM (inactive).

With `Cc1ccc(C(NC(=O)c2cccc(Cl)c2)c2nc(-c3ccccc3)no2)cc1` (configuration not stated), the EC50 was > 50 µM (inactive).

Regarding `O=C(NC(c1ccccc1)c1nc(-c2ccccc2)no1)c1ccc(Cl)cc1` (configuration not stated), the EC50 is > 50 µM (inactive).

(Values after PubChem BioAssay AID743418 (The Scripps Research Institute Molecular Screening Center, 2014).)
